This is an account of results in patent US20230036041A1, “SORTILIN BINDING CONJUGATE COMPOUNDS, COMPOSITIONS AND USES THEREOF FOR TREATING CANCER” (THERATECHNOLOGIES INC., priority 2019, published 2023).

Molecules are shown by their SMILES. Read-outs that look alike come from different tables or passages of the source. Non-standard residues stand in square brackets, D forms with d. Residues, ends and D or L forms follow the SMILES beside them. *: point of attachment. X1 = CC(=O)O[C@@]12CO[C@@H]1C[C@H](O)[C@@]1(C)C(=O)[C@H](O)C3=C(C)[C@@H](OC(=O)[C@H](OC(=O)CCC(=O)*)[C@@H](NC(=O)OC(C)(C)C)c4ccccc4)C[C@@](O)([C@@H](OC(=O)c4ccccc4)[C@H]21)C3(C)C; Nle = CCCC[C@H](N)C(=O)O

The test system of data set [1] is murine B16-F10 cancer cells. The data set is described as follows: syngeneic melanoma tumor model (B16-F10). The following applies: for body weights, dose-response study: equivalent doses, −20% endpoint limit. The data set is classed as in vivo, mice. As for the experimental part: (§1) Briefly, stock solution of formulated TH1902 was prepared as sterile aliquots of 10 mg/mL frozen liquid solutions (see below). On the day of animal dosing, frozen aliquots were thawed 30 minutes at room temperature then diluted with sterile 5% dextrose injection, USP (D5W) to the desired concentration for injection (i.e. typically 5.4 or 1.35 mg/mL).
TH1902 frozen stock solution were prepared as follow: • 1. Make the TH1902 diluent solution (Diluent) the day before the solubilization. Diluent: 10% Tween™ 80 in D5W USP (w/v) with 0.04% of formic acid (v/v), ˜pH 2.9. Leave solution at room temperature until TH1902 solubilization (next day). • 2. Weigh 60 mg of TH1902 API into a 14 ml glass vial with screw caps. Adjust TH1902 weights to reflect TH1902 purity according to the certificate of analysis. • 3. Add 90% of diluent solution needed to prepare the TH1902 10 mg/ml stock solution. • 4. Swirl the content of the bottle to form opaque mixture and place a stir bar. • 5. Place bottle in the heating apparatus (glass water bath and mount for holding vial with thermometer and stir bar on a digital heating plate). Begin mixing the content of the bottle. • 6. Gradually increase the temperature of water bath in increments of 5° C. every 30 minutes until mixture turns clear (temperature ramping up to 45° C. over a period of time of about 165 to 180 minutes). Record water bath temperature every 15 minutes. • 7. Leave at room temperature for 30 minutes with gentle swirling (cool down). Measure pH. Adjust pH to 4.3±0.2 using dilute NaOH (0.1 N or less). • 8. Transfer the formulation to a graduated glass cylinder and bring to final calculated volume with diluent solution. • 9. Transfer back into the 14 ml glass vial and mix slowly for 5 minutes at room temperature. Measure pH. pH should be 4.3±0.2. • 10. Filter sterilize with a PES 0.22 μm membrane into a new and sterile 14 ml glass vial. Check the pH again. Perform UPLC analysis against a TH1902 standard curve for quantification and purity assessment. • 11. Freeze aliquots of TH1902 stock solution at −80° C. (0.5 mL per aliquot in 4 mL glass vials).
For the syngeneic B16-F10 melanoma tumor model, normal immunocompetent mice were implanted subcutaneously with murine B16-F10 cancer cells. […]
For FIG. 28A, immunocompetent mice bearing B16-F10 xenografts were repeatedly injected intravenously (arrows indicate injection days) with vehicle or with vehicle containing equivalent of docetaxel (15 mg/kg/week) or TH1902 (35 mg/kg/week). In FIG. 28B, the effects of TH1902 and docetaxel on tumor progression at day-14 are presented by subtracting the initial tumor volumes at day-0 to the tumor volumes measured at day-14 when tumors of the vehicle group reached the endpoint limits. […]

Data set [2] deals with AN3-CA endometrial xenograft tumor. In kind it is in vivo, mice. As for the experimental part: as §1
(§2) TH1902 frozen stock solution were prepared as follow: • 1. Make the TH1902 diluent solution (Diluent) the day before the solubilization. Diluent: 10% Tween™ 80 in D5W USP (w/v) with 0.04% of formic acid (v/v), ˜pH 2.9. Leave solution at room temperature until TH1902 solubilization (next day). • 2. Weigh 60 mg of TH1902 API into a 14 ml glass vial with screw caps. Adjust TH1902 weights to reflect TH1902 purity according to the certificate of analysis. • 3. Add 90% of diluent solution needed to prepare the TH1902 10 mg/ml stock solution. • 4. Swirl the content of the bottle to form opaque mixture and place a stir bar. • 5. Place bottle in the heating apparatus (glass water bath and mount for holding vial with thermometer and stir bar on a digital heating plate). Begin mixing the content of the bottle. • 6. […] Transfer the formulation to a graduated glass cylinder and bring to final calculated volume with diluent solution. • 9. […] Perform UPLC analysis against a TH1902 standard curve for quantification and purity assessment. • 11. […]
Three human sortilin-positive gynecological cancer cell lines (ovary: ES-2 and SKOV-3/Luc, endometrial: AN3-CA) were used for to assess the chemotherapeutic activity of TH1902 in vivo using xenograft models in immunodeficient mice. […] Body weights of the mice administered with docetaxel, TH1902 or vehicle were monitored as a gross indicator of morbidity.
The effect of TH1902 or docetaxel on the endometrial AN3-CA xenograft tumor model is shown on FIG. 24. […] In FIG. 24B effects of TH1902 and docetaxel on tumor progression at day-14 are presented by subtracting the initial tumor volumes at day-0 to the tumor volumes measured at day 14. […]

Data set [3] relates to HT29 colorectal xenograft tumors. The experiment in a line: colorectal cancer xenograft model (HT-29). In kind it is in vivo, mice. The conditions noted are these: low and high doses, −20% endpoint limit. As for the experimental part: as §1, §2
The nature of data set [4]: assessment of neutropenia in treated mice. In kind it is in vivo. The conditions noted are these: athymic mice; for neutrophil counts: docetaxel 15 mg/kg/week or TH1902 at equivalent dose, up to 6 treatments, FIG. 11. The protocol: 15 young adult, female, homozygous athymic mice (Crl:CD1-Foxn1^nu, 4-6 weeks of age) received 6 consecutive treatments of docetaxel or TH1902 (at equivalent dose of docetaxel (15 mg/kg/week)). […] This level continued to decrease as the administration of docetaxel continued.

Regarding `CC(=O)O[C@@]12CO[C@@H]1C[C@H](O)[C@@]1(C)C(=O)[C@H](O)C3=C(C)[C@@H](OC(=O)[C@H](O)[C@@H](NC(=O)OC(C)(C)C)c4ccccc4)C[C@@](O)([C@@H](OC(=O)c4ccccc4)[C@H]21)C3(C)C` [docetaxel], in data set [1] (TH1902 23 mg/kg/bi-weekly, docetaxel 10 mg/kg/bi-weekly), the “tumor growth at the highest dose, dose-response study” value is “only a minor impact on tumor growth”. For the same molecule, the “body weights, dose-response study” value in data set [1] is given as “within the acceptable range”. The “tumor growth, high dose” value in data set [2] (equivalent dose of docetaxel 15 mg/kg/week (TH1902 35 mg/kg/week), halved after 2 cycles) was “complete arrest tumor growth arrest”. For the same molecule, the body weights result in data set [2] (mouse, in vivo) was “greater evidence of weight loss”; in data set [3], “within the acceptable range”. Moreover, the neutrophil counts entry in data set [4] is recorded as “sharp drop in neutrophil levels”.

Take `CCCC[C@H](NC(=O)[C@H](CC(N)=O)NC(=O)[C@H](CCCNC(=N)N)NC(=O)[C@@H](NC(=O)CNC(=O)[C@H](C)NC(=O)[C@H](CCCCNC(=O)CCC(=O)O[C@@H](C(=O)O[C@H]1C[C@@]2(O)[C@@H](OC(=O)c3ccccc3)[C@@H]3[C@]4(OC(C)=O)CO[C@@H]4C[C@H](O)[C@@]3(C)C(=O)[C@H](O)C(=C1C)C2(C)C)[C@@H](NC(=O)OC(C)(C)C)c1ccccc1)NC(=O)[C@H](C)NC(=O)[C@H](CCCNC(=N)N)NC(=O)[C@@H](NC(=O)CNC(C)=O)C(C)C)C(C)C)C(=O)N[C@@H](Cc1ccccc1)C(=O)N[C@@H](CCCCNC(=O)CCC(=O)O[C@@H](C(=O)O[C@H]1C[C@@]2(O)[C@@H](OC(=O)c3ccccc3)[C@@H]3[C@]4(OC(C)=O)CO[C@@H]4C[C@H](O)[C@@]3(C)C(=O)[C@H](O)C(=C1C)C2(C)C)[C@@H](NC(=O)OC(C)(C)C)c1ccccc1)C(=O)N[C@@H](CO)C(=O)N[C@@H](CCC(=O)O)C(=O)N[C@@H](CO)C(=O)N[C@@H](Cc1ccc(O)cc1)C(=O)O` [TH1902, Acetyl-GVRAK(docetaxel)AGVRN(Nle)FK(docetaxel)SESY] (Ac-GVRAK(X1)AGVRN[Nle]FK(X1)SESY-OH): the “mouse body weights, first study” value in data set [1] (TH1902 35 mg/kg/week) is “without having an impact on mouse body weights”. Besides, in data set [1], the “body weights, dose-response study” value was “within the acceptable range”. Besides, the body weights result in data set [2] (MTD for docetaxel, TH1902 containing the equivalent quantity of docetaxel) is reported as “retained a fairly constant weight”; in data set [3] it was “within the acceptable range”. Further, in data set [4] (TH1902 at equivalent dose of docetaxel 15 mg/kg/week), the weight loss result is listed as “no weight loss was observed”. The neutrophil counts entry in data set [4] is reported as “no apparent change in the neutrophil counts”.
